Data from patent US11464770B2, “Anticancer pharmaceutical composition” (NATIONAL CANCER CENTER, priority 2016, dated 2022).
Like-named read-outs stand apart in the source and are kept apart here.

Columns and labels:
[1] = tested on: neuroblastoma cell lines; experiment: Cell based assay, cell viability (CellTiter-Glo), neuroblastoma cell lines; conditions: Homo sapiens; SH-SY5Y cell line
Method: (§1) Commercially available bladder cancer, prostate cancer, lung cancer, breast cancer, blood cancer, pancreatic cancer, colorectal cancer, brain cancer, neuroblastoma, melanoma, liver cancer, cervical carcinoma, ovarian cancer, renal cancer, and papilloma cell lines were each treated with trypsin-EDTA and cultured, followed by being seeded in each well of a 96 well plate. After 24 hours of treatment at constant temperature, the respective cells were treated with the candidate compound so that a final concentration became 0 to 2 μM. The treated cells were additionally cultured for 72 hours, and cell viability was measured by using an ATP detection method (CellTiter-Glo® Luminescent Cell Viability Assay, Promega).

[2] = tested on: colorectal cancer cell lines (e.g. DLD-1, HCT 116, SW620, HCT-15, HCT-8, RKO); experiment: Cell based assay, cell viability (CellTiter-Glo), colorectal cancer cell lines
Method: as §1

[3] = tested on: liver cancer cell lines; experiment: Cell based assay, cell viability (CellTiter-Glo), liver cancer cell lines; conditions: Homo sapiens, SK-HEP1; SK-HEP-1 cell line
Method: as §1

[4] = Homo sapiens, DLD-1, 72 hours treatment, read-out: IC50, colorectal cancer cell line DLD-1
[5] = Homo sapiens, HCT 116, 72 hours treatment, read-out: IC50, colorectal cancer cell line HCT 116
[6] = Homo sapiens, HCT-8, 72 hours treatment, read-out: IC50, colorectal cancer cell line HCT-8
[7] = Homo sapiens, HCT-15, 72 hours treatment, read-out: IC50, colorectal cancer cell line HCT-15
[8] = Homo sapiens, HT-29, 72 hours treatment, read-out: IC50, colorectal cancer cell line HT-29
[9] = Homo sapiens, LoVo, 72 hours treatment, read-out: IC50, colorectal cancer cell line LoVo
[10] = Homo sapiens, SW480, 72 hours treatment, read-out: IC50, colorectal cancer cell line SW480
[11] = Homo sapiens, SW-620, SW620, 72 hours treatment, read-out: IC50, colorectal cancer cell line SW620
[12] = RKO, 72 hours treatment, read-out: IC50, colorectal cancer cell line RKO

| SMILES | IC50 [1] [nM] | IC50 [2, 4] [nM] | IC50 [2, 5] [nM] | IC50 [2, 6] [nM] | IC50 [2, 7] [nM] | IC50 [2, 8] [nM] | IC50 [2, 9] [nM] | IC50 [2, 10] [nM] | IC50 [2, 11] [nM] | IC50 [2, 12] [nM] | IC50 [3] [nM] |
| --- | --- | --- | --- | --- | --- | --- | --- | --- | --- | --- | --- |
| CC(=O)c1c([S+](C)[O-])[nH]c2c(Br)ccc(Cl)c2c1=O (centres unmarked) [Compound 1, 3-acetyl-8-bromo-5-chloro-2-(methylsulfinyl)quinolin-4(1H)-one] | > 2000 | 810 | 1670 | > 2000 | > 2000 | > 10000 | > 2000 | > 2000 | > 2000 | > 2000 | 1230 |
| CC(=O)c1c([S+]([O-])Cc2ccccc2)nc2c(Br)ccc(Cl)c2c1O (centres unmarked) [Compound 4] | > 2000 | 1840 | 1150 | 1580 | 1330 | > 10000 | 1800 | > 2000 | 1330 | 1550 | 1130 |
| CSc1c(C(C)=O)c(=O)c2c(Cl)ccc(Br)c2n1C [Compound 5, 3-acetyl-8-bromo-5-chloro-1-methyl-2-(methylthio)quinolin-4(1H)-one] | > 2000 | > 2000 | > 2000 | > 2000 | > 2000 | > 10000 | > 2000 | > 2000 | > 2000 | > 2000 | > 2000 |
| CC(=O)c1c([S+](C)[O-])[nH]c2c(Cl)ccc(Cl)c2c1=O (centres unmarked) [Compound 6, 3-acetyl-5,8-dichloro-2-(methylsulfinyl)quinolin-4(1H)-one] | > 2000 | 700 | 1480 | > 2000 | 1700 | > 10000 | > 2000 | > 2000 | 1550 | 1840 | 1380 |
| CSc1c(C(C)=O)c(=O)c2cc(F)ccc2n1C [Compound 7, 3-acetyl-6-fluoro-1-methyl-2-(methylthio)quinolin-4(1H)-one] | > 2000 | > 2000 | > 2000 | > 2000 | > 2000 | > 10000 | > 2000 | > 2000 | > 2000 | > 2000 | > 2000 |
| CSc1[nH]c2ccc(F)cc2c(=O)c1C(C)=O [Compound 8, 1-(6-fluoro-4-hydroxy-2-(methylthio)quinolin-3-yl)ethan-1-one] | > 2000 | > 2000 | > 2000 | > 2000 | > 2000 | > 10000 | > 2000 | > 2000 | > 2000 | > 2000 | > 2000 |
| CC(=O)c1c([S+](C)[O-])n(C(=O)c2ccc(Br)cc2)c2c(Br)ccc(Cl)c2c1=O (centres unmarked) [Compound 9, 3-acetyl-8-bromo-1-(4-bromobenzoyl)-5-chloro-2-(methylsulfinyl)quinolin-4(1H)-one] | > 2000 | 870 | 1050 | 1750 | 1240 | > 10000 | > 2000 | 1280 | 1360 | 1930 | 990 |
| CSc1c(C(C)=O)c(=O)c2c(Cl)ccc(Br)c2n1C(C)=O [Compound 18, 1,1′-(8-bromo-5-chloro-2-(methylthio)-4-oxoquinoline-1,3(4H)-diyl)bis(ethan-1-one)] | > 2000 | > 2000 | > 2000 | > 2000 | > 2000 | > 10000 | > 2000 | > 2000 | > 2000 | > 2000 | > 2000 |
| CC(=O)c1c([S+](C)[O-])n(C(C)=O)c2c(Br)ccc(Cl)c2c1=O (centres unmarked) [Compound 19, 1,1′-(8-bromo-5-chloro-2-(methylsulfinyl)-4-oxoquinoline-1,3(4H)-diyl)bis(ethan-1-one)] | > 2000 | > 2000 | > 2000 | > 2000 | > 2000 | > 10000 | > 2000 | > 2000 | > 2000 | > 2000 | > 2000 |

Now from value to compound:

| IC50 [1] [nM] | IC50 [2, 4] [nM] | IC50 [2, 5] [nM] | IC50 [2, 6] [nM] | IC50 [2, 7] [nM] | IC50 [2, 8] [nM] | IC50 [2, 9] [nM] | IC50 [2, 10] [nM] | IC50 [2, 11] [nM] | IC50 [2, 12] [nM] | IC50 [3] [nM] | SMILES |
| --- | --- | --- | --- | --- | --- | --- | --- | --- | --- | --- | --- |
| > 2000 | > 2000 | > 2000 | > 2000 | > 2000 | > 10000 | > 2000 | > 2000 | > 2000 | > 2000 | > 2000 | CSc1[nH]c2c(Br)ccc(Cl)c2c(=O)c1C(C)=O [Compound 2, 3-acetyl-8-bromo-5-chloro-2-(methylthio)quinolin-4(1H)-one] |
| > 2000 | > 2000 | > 2000 | > 2000 | > 2000 | > 10000 | > 2000 | > 2000 | > 2000 | > 2000 | > 2000 | CC(=O)c1c(SCc2ccccc2)[nH]c2c(Br)ccc(Cl)c2c1=O [Compound 3, 3-acetyl-2-(benzylthio)-8-bromo-5-chloroquinolin-4(1H)-one] |
| > 2000 | > 2000 | > 2000 | > 2000 | > 2000 | > 10000 | > 2000 | > 2000 | > 2000 | > 2000 | > 2000 | CC(=O)c1c(SCc2ccc(Cl)cc2)[nH]c2c(Br)ccc(Cl)c2c1=O [Compound 10, 3-acetyl-8-bromo-5-chloro-2-((4-chlorobenzyl)thio)quinolin-4(1H)-one] |
| > 2000 | 820 | > 2000 | > 2000 | > 2000 | > 10000 | > 2000 | > 2000 | > 2000 | > 2000 | > 2000 | CC(=O)c1c([S+]([O-])Cc2ccc(Cl)cc2)[nH]c2c(Br)ccc(Cl)c2c1=O (centres unmarked) [Compound 11, 3-acetyl-8-bromo-5-chloro-2-((4-chlorobenzyl)sulfinyl)quinolin-4(1H)-one] |
| > 2000 | > 2000 | > 2000 | > 2000 | > 2000 | > 10000 | > 2000 | > 2000 | > 2000 | > 2000 | > 2000 | CC(=O)c1c(Sc2ccccc2)[nH]c2c(Br)ccc(Cl)c2c1=O [Compound 12, 3-acetyl-8-bromo-5-chloro-2-(phenylthio)quinolin-4(1H)-one] |
| > 2000 | > 2000 | > 2000 | > 2000 | > 2000 | > 10000 | > 2000 | > 2000 | > 2000 | > 2000 | > 2000 | CC(=O)c1c([S+]([O-])c2ccccc2)[nH]c2c(Br)ccc(Cl)c2c1=O (centres unmarked) [Compound 13, 3-acetyl-8-bromo-5-chloro-2-(phenylsulfinyl)quinolin-4(1H)-one] |
| > 2000 | > 2000 | > 2000 | > 2000 | > 2000 | > 10000 | > 2000 | > 2000 | > 2000 | > 2000 | > 2000 | COc1ccccc1Sc1[nH]c2c(Br)ccc(Cl)c2c(=O)c1C(C)=O [Compound 14, 3-acetyl-8-bromo-5-chloro-2-((2-methoxyphenyl)thio)quinolin-4(1H)-one] |
| > 2000 | > 2000 | > 2000 | > 2000 | > 2000 | > 10000 | > 2000 | > 2000 | > 2000 | > 2000 | > 2000 | COc1ccccc1[S+]([O-])c1[nH]c2c(Br)ccc(Cl)c2c(=O)c1C(C)=O (centres unmarked) [Compound 15, 3-acetyl-8-bromo-5-chloro-2-((2-methoxyphenyl)sulfinyl)quinolin-4(1H)-one] |
| > 2000 | > 2000 | > 2000 | > 2000 | > 2000 | > 10000 | > 2000 | > 2000 | > 2000 | > 2000 | > 2000 | CC(=O)c1c(Sc2ccc(Br)cc2)[nH]c2c(Br)ccc(Cl)c2c1=O [Compound 16, 3-acetyl-8-bromo-2-((4-bromophenyl)thio)-5-chloroquinolin-4(1H)-one] |
| > 2000 | > 2000 | > 2000 | > 2000 | > 2000 | > 10000 | > 2000 | > 2000 | > 2000 | > 2000 | > 2000 | CC(=O)c1c([S+]([O-])c2ccc(Br)cc2)[nH]c2c(Br)ccc(Cl)c2c1=O (centres unmarked) [Compound 17, 3-acetyl-8-bromo-2-((4-bromophenyl)sulfinyl)-5-chloroquinolin-4(1H)-one] |
